According to patent US20260217708A1, “FUSED BENZAZEPINE DERIVATIVES FOR USE IN THE TREATMENT OF CANCER AND EPILEPSY” (UCB BIOPHARMA SRL, priority 2023, published 2026):

Key:
system Xc^− [1] = target: T1, system Xc^− (Homo sapiens, UniProt Q9UPY5); assay: Cystine-induced glutamate release assay; format: cell-based; design: endogenous in cells; host or cells: H4 cells; settings: H4 cells, sodium-free HEPES buffer, 50 μM L-Cystine, 2 hours, Amplex Red glutamate readout; read-out: pIC50 Cystine-induced glutamate release assay (converted)
T1 sequence (Q9UPY5 1-501): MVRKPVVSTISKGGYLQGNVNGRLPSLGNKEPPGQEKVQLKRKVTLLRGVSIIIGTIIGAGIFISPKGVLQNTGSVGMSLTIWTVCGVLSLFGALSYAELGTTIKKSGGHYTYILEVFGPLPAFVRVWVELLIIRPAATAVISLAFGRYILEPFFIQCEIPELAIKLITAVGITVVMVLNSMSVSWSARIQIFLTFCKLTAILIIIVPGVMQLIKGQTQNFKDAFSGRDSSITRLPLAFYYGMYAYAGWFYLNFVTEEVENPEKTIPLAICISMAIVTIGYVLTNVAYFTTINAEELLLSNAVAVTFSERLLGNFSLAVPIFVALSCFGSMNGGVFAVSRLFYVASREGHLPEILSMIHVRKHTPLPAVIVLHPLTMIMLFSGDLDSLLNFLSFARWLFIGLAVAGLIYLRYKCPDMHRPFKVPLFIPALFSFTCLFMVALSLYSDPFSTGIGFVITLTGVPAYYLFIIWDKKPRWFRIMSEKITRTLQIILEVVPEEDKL
T1 sequence (P08195 1-529 partner): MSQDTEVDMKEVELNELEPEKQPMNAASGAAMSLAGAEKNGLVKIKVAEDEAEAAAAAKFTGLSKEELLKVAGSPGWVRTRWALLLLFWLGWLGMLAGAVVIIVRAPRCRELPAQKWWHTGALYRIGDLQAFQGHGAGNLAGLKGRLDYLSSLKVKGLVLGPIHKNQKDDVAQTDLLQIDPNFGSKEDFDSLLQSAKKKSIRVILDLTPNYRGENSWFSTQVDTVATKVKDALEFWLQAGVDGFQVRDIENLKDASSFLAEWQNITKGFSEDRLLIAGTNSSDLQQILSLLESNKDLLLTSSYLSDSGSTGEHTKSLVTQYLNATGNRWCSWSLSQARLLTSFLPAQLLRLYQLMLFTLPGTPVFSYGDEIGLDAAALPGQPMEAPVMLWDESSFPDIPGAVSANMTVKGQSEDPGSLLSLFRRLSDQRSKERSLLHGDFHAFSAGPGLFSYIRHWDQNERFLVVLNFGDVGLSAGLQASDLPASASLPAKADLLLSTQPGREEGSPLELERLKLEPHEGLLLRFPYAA
Procedure, shortened: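 IC50 (reported as pIC50) normalized to DMSO 1% and Erastin 50 μM controls, from Amplex Red fluorescence of glutamate exported into supernatant. H4 cells were washed into sodium-free buffer to exclude EAAT transport, then given compound with 50 μM L-cystine for 2 h in the incubator.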

system Xc^− [2] = target: T1, system Xc^−; assay: [^14C]L-Cystine uptake assay; format: cell-based; design: endogenous in cells; host or cells: H4 cells; settings: H4 cells, sodium-free HEPES buffer, 0.5 μM L-[14C]Cystine and 4.5 μM L-Cystine, 1 hour at 37° C.; read-out: pIC50 [^14C] L-Cystine uptake assay (converted)
Procedure, shortened: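 Compound effect is given as pIC50, taken between controls of 1% DMSO and 50 μM Erastin. Human H4 cells were pretreated 15 min with compound in sodium-free buffer, then took up 0.5 μM [14C]cystine with 4.5 μM cold cystine for 1 hour at 37° C, read by scintillation proximity counting.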

Row | SMILES | IC50 (system Xc^− [1]) [nM] | IC50 (system Xc^− [2]) [nM]
1 | Cc1ncc2c(n1)C(C)C(=O)N(CC(=O)Nc1ccc(Cl)c(F)c1)c1cc(Cl)cc(F)c1-2 (single isomer, unassigned) [#373, 2-[9-chloro-11-fluoro-3,5-dimethyl-6-oxo-5H-pyrimido[4,5-d][1]benzazepin-7-yl]-N-(4-chloro-3-fluoro-phenyl)acetamide] | 15.8 to 39.8 | 15.8 to 39.8
2 | Cc1cc2c(c(F)n1)-c1ccc(F)cc1C(O)C(=O)N2CC(=O)Nc1ccc(C(F)F)cc1 (single isomer, unassigned) [#380, 2-[1,9-difluoro-7-hydroxy-3-methyl-6-oxo-7H-pyrido[4,3-d][3]benzazepin-5-yl]-N-[4-(difluoromethyl)phenyl]acetamide] | < 15.8 | < 15.8
3 | O=C(CN1C(=O)C(CO)c2ncccc2-c2c(F)cc(F)cc21)Nc1ccc(Cl)c(F)c1 (single isomer, unassigned) [#381, N-(4-chloro-3-fluoro-phenyl)-2-[9,11-difluoro-5-(hydroxymethyl)-6-oxo-5H-pyrido[2,3-d][1]benzazepin-7-yl]acetamide] | 39.8 to 100 | 100 to 501
4 | O=C(CN1C(=O)C(CO)c2ncccc2-c2c(F)cc(Cl)cc21)Nc1ccc(Cl)c(F)c1 (single isomer, unassigned) [#382, 2-[9-chloro-11-fluoro-5-(hydroxymethyl)-6-oxo-5H-pyrido[2,3-d][1]benzazepin-7-yl]-N-(4-chloro-3-fluoro-phenyl)acetamide] | 15.8 to 39.8 | 15.8 to 39.8
5 | CC1C(=O)N(CC(=O)Nc2ccc(Cl)c(F)c2)c2cc(Cl)cc(F)c2-c2nnccc21 (single isomer, unassigned) [#383, 2-[9-chloro-11-fluoro-5-methyl-6-oxo-5H-pyridazino[4,3-d][1]benzazepin-7-yl]-N-(4-chloro-3-fluoro-phenyl)acetamide] | 39.8 to 100 | 15.8 to 39.8
6 | CC1C(=O)N(CC(=O)Nc2ccc(Cl)c(F)c2)c2cc(Cl)cc(F)c2-c2ccnnc21 (single isomer, unassigned) [#384, 2-[9-chloro-11-fluoro-5-methyl-6-oxo-5H-pyridazino[3,4-d][1]benzazepin-7-yl]-N-(4-chloro-3-fluoro-phenyl)acetamide] | < 15.8 | < 15.8
7 | CC1C(=O)N(CC(=O)Nc2ccc(Cl)c(F)c2)c2cc(Cl)cc(F)c2-c2cnncc21 (single isomer, unassigned) [#385, 2-[9-chloro-11-fluoro-5-methyl-6-oxo-5H-pyridazino[4,5-d][1]benzazepin-7-yl]-N-(4-chloro-3-fluoro-phenyl)acetamide] | 15.8 to 39.8 | < 15.8
8 | Cc1cc2c(c(Cl)n1)-c1ccnn1C(C)C(=O)N2CC(=O)Nc1ccc(C(F)F)cc1 (single isomer, unassigned) [#386, 2-[14-chloro-7,12-dimethyl-8-oxo-5,6,9,13-tetrazatricyclo[8.4.0.0^2,6]tetradeca-1(14),2,4,10,12-pentaen-9-yl]-N-[4-(difluoromethyl)phenyl]acetamide] | < 15.8 | < 15.8
9 | COc1cc2c(c(Cl)n1)-c1ccnn1C(C)C(=O)N2CC(=O)Nc1ccc(Cl)c(F)c1 (single isomer, unassigned) [#387, N-(4-chloro-3-fluoro-phenyl)-2-[14-chloro-12-methoxy-7-methyl-8-oxo-5,6,9,13-tetrazatricyclo[8.4.0.0^2,6]tetradeca-1(10),2,4,11,13-pentaen-9-yl]acetamide] | 15.8 to 39.8 | 15.8 to 39.8
10 | Cc1cc2c(c(Cl)n1)-c1cc(F)nn1C(C)C(=O)N2CC(=O)Nc1ccc(C(F)F)cc1 (single isomer, unassigned) [#389, 2-[14-chloro-4-fluoro-7,12-dimethyl-8-oxo-5,6,9,13-tetrazatricyclo[8.4.0.0^2,6]tetradeca-1(14),2,4,10,12-pentaen-9-yl]-N-[4-(difluoromethyl)phenyl]acetamide] | < 15.8 | < 15.8
11 | CC1C(=O)N(CC(=O)Nc2ccc(Cl)c(F)c2)c2cc(C#N)c(F)cc2-c2cccnc21 (single isomer, unassigned) [#394, N-(4-chloro-3-fluoro-phenyl)-2-[9-cyano-10-fluoro-5-methyl-6-oxo-5H-pyrido[2,3-d][1]benzazepin-7-yl]acetamide] | 15.8 to 39.8 | 39.8 to 100
12 | Cc1cc2c(cn1)-c1ccc(Cl)cc1C(C)C(=O)N2CC(=O)Nc1ccc(C(F)F)cc1 (single isomer, unassigned) [#396, 2-[9-chloro-3,7-dimethyl-6-oxo-7H-pyrido[3,4-a][3]benzazenin-5-yl]-N-[4-(difluoromethyl)phenyl]acetamide] | 15.8 to 39.8 | 15.8 to 39.8
13 | CC1C(=O)N(CC(=O)Nc2ccc(Cl)c(F)c2)c2cc(C(F)(F)F)nc(O)c2-c2ccccc21 (single isomer, unassigned) [#397, N-(4-chloro-3-fluoro-phenyl)-2-[1-hydroxy-7-methyl-6-oxo-3-(trifluoromethyl)-7H-pyrido[3,4-a][3]benzazepin-5-yl]acetamide] | 39.8 to 100 | 39.8 to 100
14 | CC1C(=O)N(CC(=O)Nc2ccc(C(F)F)cc2)c2ccnc(Cl)c2-c2cccnc21 (single isomer, unassigned) [#398, N-[4-(difluoromethyl)phenyl]-2-[3-chloro-10-methyl-9-oxo-4,8,12-triazatricyclo[9.4.0.0^2,7]pentadeca-1(11),2(7),3,5,12,14-hexaen-8-yl]acetamide] | 15.8 to 39.8 | 39.8 to 100
15 | Cc1cc2c(c(F)n1)-c1ncccc1C(C)C(=O)N2CC(=O)Nc1ccc(Cl)c(F)c1 (single isomer, unassigned) [#401, N-(4-chloro-3-fluoro-phenyl)-2-[15-fluoro-8,13-dimethyl-9-oxo-3,10,14-triazatricyclo[9.4.0.0^2,7]pentadeca-1(15),2,4,6,11,13-hexaen-10-yl]acetamide] | < 15.8 | < 15.8
16 | COc1cc2c(c(F)n1)-c1cc(F)cnc1C(C)C(=O)N2CC(=O)Nc1ccc(Cl)c(F)c1 (single isomer, unassigned) [#403, N-(4-chloro-3-fluoro-phenyl)-2-[3,14-difluoro-5-methoxy-10-methyl-9-oxo-4,8,12-triazatricyclo[9.4.0.0^2,7]pentadeca-1(11),2(7),3,5,12,14-hexaen-8-yl]acetamide] | < 15.8 | < 15.8
17 | Cc1cc2c(c(F)n1)-c1cc(F)ccc1C(C)C(=O)N2CC(=O)Nc1ccc(Cl)c(F)c1 (single isomer, unassigned) [#405, N-(4-chloro-3-fluoro-phenyl)-2-[1,10-difluoro-3,7-dimethyl-6-oxo-7H-pyrido[3,4-a][3]benzazepin-5-yl]acetamide] | 15.8 to 39.8 | < 15.8
18 | CC1C(=O)N(CC(=O)Nc2ccc(Cl)c(F)c2)c2cc(F)cc(F)c2-c2cccnc21 (single isomer, unassigned) [#406, N-(4-chloro-3-fluoro-phenyl)-2-[9,11-difluoro-5-methyl-6-oxo-5H-pyrido[2,3-d][1]benzazepin-7-yl]acetamide] | 15.8 to 39.8 | 15.8 to 39.8
19 | Cc1cc2c(cn1)-c1ncccc1C(C)C(=O)N2CC(=O)Nc1ccc(Cl)c(F)c1 (single isomer, unassigned) [#407, N-(4-chloro-3-fluoro-phenyl)-2-[8,13-dimethyl-9-oxo-3,10,14-triazatricyclo[9.4.0.0^2,7]pentadeca-1(15),2,4,6,11,13-hexaen-10-yl]acetamide] | 39.8 to 100 | 39.8 to 100
20 | Cc1cc2c(c(F)n1)-c1nccnc1C(C)C(=O)N2CC(=O)Nc1ccc(Cl)c(F)c1 (single isomer, unassigned) [#408, N-(4-chloro-3-fluoro-phenyl)-2-[15-fluoro-8,13-dimethyl-9-oxo-3,6,10,14-tetrazatricyclo[9.4.0.0^2,7]pentadeca-1(15),2,4,6,11,13-hexaen-10-yl]acetamide] | 39.8 to 100 | 39.8 to 100
